Assay [1] deals with NCI-ADR-RES (Ovarian) cells. As to the kind of experiment: Sulforhodamine B (SRB) assay, NCI-ADR-RES (multidrug resistant). It counts as cell-based, human. Conditions: 48 h. The procedure: (§1) Sulforhodamine B (SRB) assays were performed according to standard National Cancer Institute Guidelines. Briefly, human tumor cells from different cancer panels were seeded into 96 well plates in […] (plating densities ranging from 5-40,000 cells/well depending on the doubling time of individual cell lines) in serum-containing media for twenty-four hours prior to the addition of the compounds to be assayed. After 24 hours, one plate of each cell line was fixed in situ with trichloroacetic acid (TCA). The fixed slides were used to determine the cell population for each cell line at the time of drug addition (Tz). Each compound to be tested was solubilized in dimethyl sulfoxide (DMSO) and the desired concentration was then added to the medium and diluted serially 1:10 to provide a total of five or ten drug concentrations plus control (in a final volume of 200 μL). The starting dose before any dilution was 100 uM for all compounds.
(§2) Following drug addition, each culture was incubated for forty-eight hours. The assay was terminated with the addition of cold TCA. The supernatant was discarded, and the plates were washed with tap water and air dried. SRB solution was then added to each well. After staining, the bound stain was solubilized and the absorbance was read on an automated plate reader at a wavelength of 515 nm.
(§3) Using the absorbance measurements [time zero, (Tz), control growth, (C), and test growth in the presence of drug at the ten concentration levels (Ti)], the percentage growth was calculated at each of the drug concentrations levels. Percentage growth inhibition was calculated as:
(§4) [(Ti−Tz)/(C−Tz)]×100 for concentrations for which Ti>/=Tz
(§5) [(Ti−Tz)/Tz]×100 for concentrations for which Ti<Tz.
(§6) Three dose response parameters were calculated for each experimental agent. Growth inhibition of 50% (GI50) was calculated from [(Ti−Tz)/(C−Tz)]×100=50, which was the drug concentration resulting in a 50% reduction in the net protein increase (as measured by SRB staining) in control cells during the drug. The drug concentration resulting in total growth inhibition (TGI) was calculated from Ti=Tz. The LC50 (concentration of drug resulting in a 50% reduction in the measured protein at the end of the drug treatment as compared to that at the beginning) indicating a net loss of cells following treatment was calculated from [(Ti−Tz)/Tz]×100=−50.
(§7) Values were calculated for each of these three parameters when the level of activity was reached; however, if the effect was not reached or was exceeded, the value for that parameter was expressed as greater or less than the maximum or minimum concentration tested.
(In general: The SRB assay estimates cell density from bound dye.)

The test system of assay [2] is A549 (Lung) cells. As to the kind of experiment: Sulforhodamine B (SRB) assay, A549. It is filed as cell-based. As to conditions: Homo sapiens. On the procedure:
as §1, §2, §3, §4, §5, §6, §7

Assay [3] deals with Na+/K+-ATPase (Adenosine 5′-Triphosphatase isolated from porcine cerebral cortex). Briefly: Na+/K+-ATPase inhibitory activity, colorimetric Adenosine 5′-Triphosphatase Enzymatic Assay (Sigma). It counts as biochemical. As to conditions: enzyme from porcine cerebral cortex, 0.5 units/ml. The procedure:
The compound inhibitory effect on ATPase activity was assessed in vitro using the colorimetric Adenosine 5′-Triphosphatase Enzymatic Assay of Sigma (St. Louis, Mo.) according to the manufacturer's instructions. This assay utilizes Adenosine 5′-Triphosphatase isolated from porcine cerebral cortex. Each reaction was performed in a final volume of […] using 0.5 units/ml enzyme in the presence of the different inhibitors. […] IC50 values were determined using the Origin® program software (OriginLab, Northampton, Mass.).

The subject of assay [4] is 7 different cell lines (lung, ovarian, prostate, CNS, breast, colon). Briefly: SRB assays across 7 cell lines. It counts as cell-based, human. On the procedure:
as §1, §2, §3, §4, §5, §6, §7
SRB provides a colorimetric measure of a compound's anti-cancer activity. SRB assays were performed with compounds of the invention in 7 different cell lines, which represent six different tumor panels (lung, ovarian, prostate, CNS, breast, colon).

In assay [5] the test system is membrane androgen receptor. As to the kind of experiment: Membrane androgen receptor competition assay with testosterone-HSA-FITC in DU145 cells. It is filed as binding. Set-up: membrane fluorescence (binding of TAC-FITC to the membrane androgen receptor): dose or concentration left out as unconfirmed. On the procedure: The detection of membrane androgen receptors using fluorescent testosterone-serum albumin conjugates was performed as described by Kampa, M et al., 2002, Faseb J 16:1429-1431, with minor modifications. The assay was used to measure the ability of a given compound to preclude binding of a fluorescent mAR ligand (testosterone-HSA-FITC conjugates) to its receptor in DU145 cells; this compound-induced effect is indicative of direct mAR binding (see Kampa et al and PCT/US2007/007913). […] Coverslips were mounted on slides by using the Slow Fade/Antifade Reagent (Molecular Probes) and studied under a LEICA DMLB microscope, equipped with the appropriate fluorescence filters and a Leica DC 300F camera. Specimens were analyzed using the Leica FW4000 computer program.
Membrane androgen receptor competition assays were performed to determine the capacity of a given compound to preclude binding of fluorescent testosterone-HSA conjugates (TAC) to the membrane androgen receptor. […] Specimens were prepared and analyzed as described above. Compounds binding to the membrane androgen receptor preclude binding of fluorescent testosterone-HSA conjugates to their target and abolish membrane-specific fluorescence.

As a reminder, the GI50 is the concentration giving 50% growth inhibition. In general, TGI refers to the concentration giving total growth inhibition. The term IC50 denotes the midpoint of a concentration-inhibition curve.

Bounds are passed on as bounds.

With `C[C@]12CCC(=NOC3CCNC3)CC1CCC1C2CC[C@]2(C)C(=O)C(F)CC12` (stereo partly drawn) [Compound 2, (5S,10S,13S,16R)-16a-fluoro-10,13-dimethyl-3-((S)-pyrrolidin-3-yloxyimino)-tetradecahydro-2H-cyclopenta[a]phenanthren-17(14H)-one], the CC50 in assay [1] (Homo sapiens, NCI/ADR-RES, read-out: LC50) was 598 nM; in assay [2] (A549, 48 h, read-out: LC50), 599 nM; in assay [4] (Homo sapiens, read-out: LC50 values) it was less than 1000 nM. Further, the concentration for 50% growth inhibition (GI50) in assay [1] (Homo sapiens, NCI-ADR-RES Ovarian, SRB) was 29 nM; in assay [2] (A549 Lung, SRB, 48 h), 9 nM; in assay [4] (Homo sapiens, SRB, average over cell lines) it was less than 1000 nM. Moreover, in assay [1] (NCI-ADR-RES Ovarian, SRB), the concentration for total growth inhibition (TGI) is 94 nM. In addition, the IC (TGI) in assay [2] (A549 Lung, SRB, 48 h) is 73 nM. This compound gave an IC50 in assay [3] of 73 nM. Besides, in assay [4] (cell lines representative of lung, breast, CNS, prostate, ovarian, colon and renal neoplasias), the “viability and/or cell proliferation of cell lines” value is “reduced the viability and/or cell proliferation”. In addition, in assay [5] (DU145 cells), the “binding to the membrane androgen receptor (conclusion)” value was “capable of binding to the membrane androgen receptor”. Further, the “membrane fluorescence (binding of TAC-FITC to the membrane androgen receptor)” value in assay [5] (DU145 cells pre-treated with compound for 30 minutes, then testosterone-HSA-FITC) is reported as “largely reduced”.
